Target: human TrkA (Homo sapiens (Human), UniProt P04629)
Assay: Human TrkA inhibition assay (Test Example 2)
Type: biochemical
Conditions: Table 155, human TrkA inhibition; read-out: IC50
How it was run: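 Recombinant TrkA (1 nmol/L) was preincubated 15 min at room temperature with compound in HEPES/MgCl2/DTT buffer, then reacted with FL-peptide 27 (1.5 μmol/L) and ATP (500 μmol/L) for 120 min at 37 °C. After EDTA stop, substrate phosphorylation was read by microfluidic mobility shift. IC50 came from logistic regression over 3-fold dilution series.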

Chain of human TrkA (P04629 440-796): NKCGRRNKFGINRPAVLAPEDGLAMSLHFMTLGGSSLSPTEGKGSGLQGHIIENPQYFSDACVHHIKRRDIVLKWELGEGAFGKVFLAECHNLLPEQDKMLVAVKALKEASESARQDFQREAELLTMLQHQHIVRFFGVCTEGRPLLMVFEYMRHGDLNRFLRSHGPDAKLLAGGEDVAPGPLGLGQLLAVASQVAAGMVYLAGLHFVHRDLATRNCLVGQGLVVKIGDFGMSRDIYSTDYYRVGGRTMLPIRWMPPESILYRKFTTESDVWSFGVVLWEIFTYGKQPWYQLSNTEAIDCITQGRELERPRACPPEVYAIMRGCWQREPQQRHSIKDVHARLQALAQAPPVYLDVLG

IC50 | SMILES
< 100 nM | COCCN1C[C@@H](NC(=O)Nc2c(C)c(-c3cnc4c(c3)CN(C)C4=O)nn2-c2ccccc2)[C@H](c2ccnc(F)c2)O1 (racemic) [Compound I-343]
< 100 nM | COCCN1C[C@@H](NC(=O)Nc2c(C)c(-n3cnc(C)c3)nn2-c2ccccc2)[C@H](c2ccnc(F)c2)O1 (racemic) [Compound I-346]
< 100 nM | COCCN1C[C@@H](NC(=O)Nc2c(C)c(-c3ccc4nc(CO)cn4c3)nn2-c2ccccc2)[C@H](c2ccnc(F)c2)O1 (racemic) [Compound I-347]
< 100 nM | COCCN1C[C@@H](NC(=O)Nc2c(C)c(-c3cc(C)c4nccn4c3)nn2-c2ccccc2)[C@H](c2ccnc(F)c2)O1 (racemic) [Compound I-348]
< 100 nM | COCCN1C[C@@H](NC(=O)Nc2c(C)c(-c3ccc(C)nc3F)nn2-c2ccccc2)[C@H](c2ccnc(F)c2)O1 (racemic) [Compound I-350]
< 100 nM | COCCN1C[C@@H](NC(=O)Nc2c(C)c(-c3cnc4c(c3)CCN4)nn2-c2ccccc2)[C@H](c2ccnc(F)c2)O1 (racemic) [Compound I-351]
< 100 nM | COCCN1C[C@@H](NC(=O)Nc2c(C)c(-c3cnc(OC)cn3)nn2-c2ccccc2)[C@H](c2ccnc(F)c2)O1 (racemic) [Compound I-352]
< 100 nM | CCC(O)(CC)c1cc(-c2nn(-c3ccccc3)c(NC(=O)N[C@@H]3CN(CCOC)O[C@H]3c3ccnc(F)c3)c2C)cnc1OC (racemic) [Compound I-354]
< 100 nM | COCCN1C[C@@H](NC(=O)Nc2c(C)c(-c3cnc(OC)c(C4(O)CC4)c3)nn2-c2ccccc2)[C@H](c2ccnc(F)c2)O1 (racemic) [Compound I-355]
< 100 nM | COCCN1C[C@@H](NC(=O)Nc2c(C)c(-c3cnc4c(c3)NC(=O)CN4)nn2-c2ccccc2)[C@H](c2ccnc(F)c2)O1 (racemic) [Compound I-357]
< 100 nM | COCCN1C[C@@H](NC(=O)Nc2c(C)c(-c3cnc(C4(O)COC4)nc3)nn2-c2ccccc2)[C@H](c2ccnc(F)c2)O1 (racemic) [Compound I-360]
< 100 nM | COCCN1C[C@@H](NC(=O)Nc2c(C)c(-c3ccc4c(c3)NC(=O)CO4)nn2-c2ccccc2)[C@H](c2ccnc(F)c2)O1 (racemic) [Compound I-364]
< 100 nM | COCCN1C[C@@H](NC(=O)Nc2c(C)c(-c3ccc4c(c3)N(C)C(=O)CO4)nn2-c2ccccc2)[C@H](c2ccnc(F)c2)O1 (racemic) [Compound I-365]
< 100 nM | COCCN1C[C@@H](NC(=O)Nc2c(C)c(-c3cnc(OC)c(OC)c3)nn2-c2ccccc2)[C@H](c2ccnc(F)c2)O1 (racemic) [Compound I-366]
< 100 nM | COCCN1C[C@@H](NC(=O)Nc2c(C)c(-c3cnc(OC)c(F)c3)nn2-c2ccccc2)[C@H](c2ccnc(F)c2)O1 (racemic) [Compound I-367]
< 100 nM | COCCN1C[C@@H](NC(=O)Nc2c(C)c(-c3cnc(-c4cnn(C)c4)nc3)nn2-c2ccccc2)[C@H](c2ccnc(F)c2)O1 (racemic) [Compound I-368]
< 100 nM | COCCN1C[C@@H](NC(=O)Nc2c(C)c(-c3cnc4c(c3)c(C(=O)OC)nn4C)nn2-c2ccccc2)[C@H](c2ccnc(F)c2)O1 (racemic) [Compound I-369]
< 100 nM | COCCN1C[C@@H](NC(=O)Nc2c(C)c(-c3cnc(N4CCN(C(=O)OCc5ccccc5)CC4)nc3)nn2-c2ccccc2)[C@H](c2cc(F)nc(F)c2)O1 (racemic) [Compound I-370]
< 100 nM | COCCN1C[C@@H](NC(=O)Nc2c(C)c(-c3cnc(N4CCN(C(=O)OCc5ccccc5)CC4)nc3)nn2-c2ccccc2)[C@H](c2ccnc(F)c2)O1 (racemic) [Compound I-371]
< 100 nM | COCCN1C[C@@H](NC(=O)Nc2c(C)c(-c3ccc(N4CCN(C(=O)OC(C)(C)C)CC4)nc3)nn2-c2ccccc2)[C@H](c2ccnc(F)c2)O1 (racemic) [Compound I-372]
< 100 nM | COCCN1C[C@@H](NC(=O)Nc2c(C)c(-c3cnc(N4CC5(COC5)C4)nc3)nn2-c2ccccc2)[C@H](c2ccnc(F)c2)O1 (racemic) [Compound I-373]
< 100 nM | COCCN1C[C@@H](NC(=O)Nc2c(C)c(-c3ccc(N4CCNCC4)nc3)nn2-c2ccccc2)[C@H](c2ccnc(F)c2)O1 (racemic) [Compound I-374]
< 100 nM | COCCN1C[C@@H](NC(=O)Nc2c(C)c(-c3ccc(N4CCN(CC#N)CC4)nc3)nn2-c2ccccc2)[C@H](c2ccnc(F)c2)O1 (racemic) [Compound I-375]

IC50 | SMILES
< 100 nM | COCCN1C[C@@H](NC(=O)Nc2c(C)c(-c3cnc4c(c3)c(C(=O)NC3CCN(C)CC3)nn4C)nn2-c2ccccc2)[C@H](c2ccnc(F)c2)O1 (racemic) [Compound I-376]
< 100 nM | COCCN1C[C@@H](NC(=O)Nc2c(C)c(-c3cnc4c(c3)c(C(=O)N3CCN(C)CC3)nn4C)nn2-c2ccccc2)[C@H](c2ccnc(F)c2)O1 (racemic) [Compound I-377]
< 100 nM | COCCN1C[C@@H](NC(=O)Nc2c(C)c(-c3cnc(N4CCCC4)nc3)nn2-c2ccccc2)[C@H](c2ccnc(F)c2)O1 (racemic) [Compound I-378]
< 100 nM | COCCN1C[C@@H](NC(=O)Nc2c(C)c(-c3cnc(N4CCN(C)CC4)nc3)nn2-c2ccccc2)[C@H](c2ccnc(F)c2)O1 (racemic) [Compound I-379]
< 100 nM | COCCN1C[C@@H](NC(=O)Nc2c(C)c(-c3cnc(N4CCN(C)CC4)nc3)nn2-c2ccccc2)[C@H](c2cc(F)nc(F)c2)O1 (racemic) [Compound I-380]
< 100 nM | COCCN1C[C@@H](NC(=O)Nc2c(C)c(-c3cnc(OC4CCN(C)CC4)nc3)nn2-c2ccccc2)[C@H](c2ccnc(F)c2)O1 (racemic) [Compound I-381]
< 100 nM | COCCN1C[C@@H](NC(=O)Nc2c(C)c(-c3ccc4c(c3)NCCO4)nn2-c2ccccc2)[C@H](c2ccnc(F)c2)O1 (racemic) [Compound I-382]
< 100 nM | COCCN1C[C@@H](NC(=O)Nc2c(C)c(-c3cc(F)c4c(c3)NCCO4)nn2-c2ccccc2)[C@H](c2ccnc(F)c2)O1 (racemic) [Compound I-383]
< 100 nM | CNC(=O)c1nn(-c2ccccc2)c(NC(=O)N[C@@H]2CN(CCOC)O[C@H]2c2ccnc(F)c2)c1C (racemic) [Compound I-384]
< 100 nM | COCCN1C[C@@H](NC(=O)Nc2c(C)c(C(=O)NCC(C)(C)O)nn2-c2ccccc2)[C@H](c2ccnc(F)c2)O1 (racemic) [Compound I-385]
> 1000 nM | CNC(=O)c1cc(NC(=O)N[C@@H]2CN(CCOC)O[C@H]2c2ccnc(F)c2)n(-c2ccccc2)n1 (racemic) [Compound I-388]
< 100 nM | COCCN1C[C@@H](NC(=O)Nc2c(C)c(-c3cc(C(=O)NC(C)(C)C)c(=O)n(C)c3)nn2-c2ccccc2)[C@H](c2ccnc(F)c2)O1 (racemic) [Compound I-389]
< 100 nM | COCCN1C[C@@H](NC(=O)Nc2c(C)c(-c3cc(C(=O)NC(C)(C)C(F)(F)F)c(=O)n(C)c3)nn2-c2ccccc2)[C@H](c2ccnc(F)c2)O1 (racemic) [Compound I-390]
< 100 nM | COCCN1C[C@@H](NC(=O)Nc2c(C)c(C3=CC(=O)N(C)C(C)(C)C3)nn2-c2ccccc2)[C@H](c2ccnc(F)c2)O1 (racemic) [Compound I-397]
< 100 nM | COCCN1C[C@@H](NC(=O)Nc2c(C)c(-c3cnc4c(c3)nc(N3CCCC3)n4C)nn2-c2ccccc2)[C@H](c2ccnc(F)c2)O1 (racemic) [Compound I-398]
< 100 nM | COCCN1C[C@@H](NC(=O)Nc2c(C)c(-c3cnc4c(c3)nc(N3CCN(C)CC3)n4C)nn2-c2ccccc2)[C@H](c2ccnc(F)c2)O1 (racemic) [Compound I-399]
< 100 nM | COCCN1C[C@@H](NC(=O)Nc2c(C)c(-c3cnc4c(c3)ncn4CC(=O)N3CCN(C)CC3)nn2-c2ccccc2)[C@H](c2ccnc(F)c2)O1 (racemic) [Compound I-400]
< 100 nM | CNC(=O)Cn1cnc2cc(-c3nn(-c4ccccc4)c(NC(=O)N[C@@H]4CN(CCOC)O[C@H]4c4ccnc(F)c4)c3C)cnc21 (racemic) [Compound I-401]
< 100 nM | COCCN1C[C@@H](NC(=O)Nc2c(C)c(-c3cnc4c(c3)ncn4CC(=O)N(C)C)nn2-c2ccccc2)[C@H](c2ccnc(F)c2)O1 (racemic) [Compound I-402]
< 100 nM | COCCN1C[C@@H](NC(=O)Nc2c(C)c(-c3cnc4c(c3)nc(C(=O)N3CCN(C)CC3)n4C)nn2-c2ccccc2)[C@H](c2ccnc(F)c2)O1 (racemic) [Compound I-403]
< 100 nM | COCCN1C[C@@H](NC(=O)Nc2c(C)c(-c3cnc4c(c3)nc(C(=O)NC3CCN(C)CC3)n4C)nn2-c2ccccc2)[C@H](c2ccnc(F)c2)O1 (racemic) [Compound I-404]
< 100 nM | CCN1C[C@@H](NC(=O)Nc2c(C)c(-c3cnc(OC)nc3)nn2-c2ccccc2)[C@H](c2ccc(F)c(F)c2)O1 (racemic) [Compound I-405]

SMILES | IC50
COCCN1C[C@@H](NC(=O)Nc2c(C)c(-c3ccc(N4C[C@H]5COC[C@@H](C4)N5C(=O)OC(C)(C)C)nc3)nn2-c2ccccc2)[C@H](c2ccnc(F)c2)O1 (racemic) [Compound I-393] | < 100 nM
COCCN1C[C@@H](NC(=O)Nc2c(C)c(-c3ccc(N4C[C@H]5COC[C@@H](C4)N5)nc3)nn2-c2ccccc2)[C@H](c2ccnc(F)c2)O1 (racemic) [Compound I-394] | < 100 nM
COCCN1C[C@@H](NC(=O)Nc2c(C)c(-c3ccc(N4C[C@H]5COC[C@@H](C4)N5C)nc3)nn2-c2ccccc2)[C@H](c2ccnc(F)c2)O1 (racemic) [Compound I-396] | < 100 nM

Same assay, conditions: human TrkA 1 nmol/L, ATP 500 μmol/L, 120 min at 37° C.; read-out: IC50 values (TrkA phosphorylation inhibition)

IC50 | SMILES
1.5 nM | COCCN1C[C@@H](NC(=O)Nc2c(C)c(-c3cnc4c(c3)NCC(=O)N4)nn2-c2ccccc2)[C@H](c2ccnc(F)c2)O1 (racemic) [Compound I-356]
6.8 nM | COCCN1C[C@@H](NC(=O)Nc2c(C)c(-c3ccc(N4CCN(C)CC4)nc3)nn2-c2ccccc2)[C@H](c2ccnc(F)c2)O1 (racemic) [Compound I-392]

Reference: US10640495B2, “Heterocycle derivatives having TrkA inhibitory activity” (Shionogi & Co., Ltd., priority 2015, dated 2020)
